This is an account of results in paper PMC3541360 (2013).

Structures are written as SMILES.

For assay [1], the system named is -80 G4 (oligo Tr-80-I) (DNA, G4) CGGGGGCGCGTGAGGGGCGGGGTGGGC
Put plainly: fluorescent intercalator displacement (thiazole orange). The settings on record: 60 mM K+; 10 mM potassium cacodylate pH 7.4, 50 mM KCl; 0.25 µM DNA, 0.50 µM thiazole orange displaced.

Assay [2] concerns MNSG4 (oligo TrMNS-I) (DNA, G4) TGGGTCTGAGGGAGGAGGGGCTGGGGGC
Described as above. The settings on record: 60 mM K+; 10 mM potassium cacodylate pH 7.4, 50 mM KCl; 0.25 µM DNA, 0.50 µM thiazole orange displaced.

The test system is the same in assay [3]. Put plainly: CD melting, 295 nm. As to conditions: 100 mM K+; 10 mM Tris-HCl pH 7.4; 5 µM DNA, 10 µM compound; absolute Tm, free DNA 71.4±0.5 °C.

Take `[Cl-].[Cl-].[Cl-].[Cl-].[Cu+2].[Cu+2].c1ccc(CN(CCOc2cc(-c3ccccn3)nc(-c3ccccn3)c2)Cc2ccccn2)nc1`: the “−80 G4DC50” value in assay [1] is given as 0.19 µM. Moreover, the MSN1DC50 in assay [2] is listed as 0.31 µM. Moreover, the “Tm (with ligand)” value in assay [3] turned out to be 86.2±2.1 °C.

Regarding `[Cl-].[Cl-].[Pt+2].[Pt+2].c1ccc(CN(CCOc2cc(-c3ccccn3)nc(-c3ccccn3)c2)Cc2ccccn2)nc1`, the “−80 G4DC50” value in assay [1] was found to be 2.22 µM. Besides, the MSN1DC50 in assay [2] is on record as 0.39 µM.

On to `[Pt+2].[S-]CCN1CCCCC1.c1ccc(-c2cc(OCCN3CCOCC3)cc(-c3ccccn3)n2)nc1`, for which, in assay [1], the “−80 G4DC50” value turned out to be 0.55 µM. Further, in assay [2], the MSN1DC50 was determined as 0.76 µM.
